Results from patent publication US20240408094A1, “INHIBITION OF USP7 INDUCES P53-INDEPENDENT TUMOR GROWTH SUPPRESSION IN TRIPLE-NEGATIVE BREAST CANCERS BY DESTABILIZING FOXM1” (The Trustees of Columbia University in the City of New York, priority 2023, published 2024).
Where a SMILES comes first, the peptide text is derived from it. The star is where a group is joined. Cbz = O=C(OCc1ccccc1)*

How the values were obtained:
USP7 [1] = molecular target: T1, USP7 (Homo sapiens, UniProt Q93009); test: USP7 protein degradation by western blot in CAL33 cells; format: cell-based; conditions: CAL33 and A549 cells, 2.5 μM, 48 h
T1 construct: used to treat CAL33 cells that express high levels of USP7 protein; endogenous in cells; host or cells: CAL33 (human head and neck squamous cell cancer); for A6 also the CRBN CRISPR knockout CAL33
T1 sequence (Q93009 whole entry): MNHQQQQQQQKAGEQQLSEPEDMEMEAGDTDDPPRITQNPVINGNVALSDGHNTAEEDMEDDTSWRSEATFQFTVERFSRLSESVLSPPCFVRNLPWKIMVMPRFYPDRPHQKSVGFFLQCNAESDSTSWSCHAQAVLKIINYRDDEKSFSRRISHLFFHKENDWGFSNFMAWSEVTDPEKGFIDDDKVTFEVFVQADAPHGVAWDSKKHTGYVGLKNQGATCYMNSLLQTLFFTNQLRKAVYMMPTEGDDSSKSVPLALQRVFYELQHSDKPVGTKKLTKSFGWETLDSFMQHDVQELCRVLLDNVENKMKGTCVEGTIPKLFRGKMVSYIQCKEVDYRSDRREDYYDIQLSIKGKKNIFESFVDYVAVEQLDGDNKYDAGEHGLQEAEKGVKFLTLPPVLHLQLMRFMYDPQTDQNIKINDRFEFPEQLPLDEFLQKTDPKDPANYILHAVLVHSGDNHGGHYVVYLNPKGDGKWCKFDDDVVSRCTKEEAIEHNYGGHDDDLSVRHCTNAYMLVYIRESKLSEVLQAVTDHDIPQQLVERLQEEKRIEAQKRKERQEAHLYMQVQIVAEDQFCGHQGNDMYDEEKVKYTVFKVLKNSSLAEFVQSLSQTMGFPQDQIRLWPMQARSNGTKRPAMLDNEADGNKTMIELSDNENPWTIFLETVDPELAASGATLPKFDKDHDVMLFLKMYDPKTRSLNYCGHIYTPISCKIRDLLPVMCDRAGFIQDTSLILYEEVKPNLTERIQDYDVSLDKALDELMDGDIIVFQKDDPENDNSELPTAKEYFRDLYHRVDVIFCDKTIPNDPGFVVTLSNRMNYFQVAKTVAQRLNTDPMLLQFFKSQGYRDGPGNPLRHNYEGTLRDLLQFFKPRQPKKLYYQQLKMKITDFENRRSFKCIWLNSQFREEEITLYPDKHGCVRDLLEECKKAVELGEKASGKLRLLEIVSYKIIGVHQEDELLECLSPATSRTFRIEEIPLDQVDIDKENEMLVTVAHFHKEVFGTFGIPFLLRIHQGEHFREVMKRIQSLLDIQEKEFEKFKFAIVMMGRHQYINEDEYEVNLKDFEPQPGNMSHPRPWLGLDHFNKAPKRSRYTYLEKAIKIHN
Method: To specifically degrade USP7, a set of 66 PROTAC compounds were designed and synthesized that contain an USP7 specific binding moiety XL177A and an E3 ubiquitin ligase (CRBN or VHL) binding moiety connected by different linkers. All putative USP7 PROTACs were used to treat CAL33 cells that express high levels of USP7 protein, and then the USP7 protein levels were determined by western blot (FIGS. 10A and 10B). Through initial screening, PU7-1 was identified as a potential USP7 degrader (FIG. 3A and FIG. 10). […] The effect of PU7-1 was also tested in several human cancer cells harboring wild-type p53. […] In addition, to exclude the possibility that PU7-1 affects the USP7 protein levels by regulating its transcription, a quantitative real-time PCR was performed in CAL33 treated with PU7-1 for 72 h. […]
Cells were lysed in FLAG lysis buffer (50 mM Tris-HCl (pH 7.3), 137 mM NaCl, 10 mM NaF, 0.5 mM EDTA, 1% Triton X-100, 0.2% Sarkosyl, 10% glycerol) freshly supplemented with protease inhibitor cocktail. Protein concentration was determined by the Bio-Rad protein assay. […] Membranes were blocked with 5% (w/v) nonfat milk in Tris-buffered saline with Tween-20 (TBST), incubated with primary antibodies, then secondary HRP-conjugated antibodies (Jackson ImmunoResearch, 1:10000 dilution) and detected on autoradiographic films after incubating with ECL (Thermo Scientific, #32106). […]

USP7 [2] = molecular target: T1, USP7; test: Rescue of PU7-1-mediated USP7 degradation by pathway inhibitors in CAL33; format: cell-based; conditions: CAL33, 5 μM PU7-1; 5 μM MLN4924, 25 μM Chloroquine or 5 μM MG132 for 24 h
Method: USP7 protein levels were detected by immunoblots. […] USP7 protein levels were measured by immunoblots. […] USP7 protein levels were detected by immunoblots, then quantified by ImageJ after normalized to internal control β-actin. Half maximal degradation concentration (DC50) was calculated by Graphpad Prism.
To investigate the mechanism of action of PU7-1, CRBN knockout (KO) CAL33 cell line was generated using CRISPR-Cas9 technology. Control and CRBN KO cells were treated with 2.5 μM of PU7-1 for 72 h and then the expression levels of USP7 and CRBN proteins were detected by western blot analysis. CRBN protein was undetectable in the KO cells (FIG. 3H). […] CAL33 cells were first treated with 5 μM of PU7-1 for 48 h to degrade the USP7 proteins, and then treated with 5 μM of MLN4924, 25 μM of Chloroquine (CLQ) or 5 μM of MG132 for additional 24 h.

FOXM1 = test: Block of PU7-1-induced FOXM1 destabilization by pathway inhibitors in CAL33; format: cell-based, human; conditions: CAL33, 10 μM PU7-1 72 h; 1 μM MLN4924 or BafA1 24 h, 10 μM MG132 6 h

| effect on USP7 degradation mediated by PU7-1 (USP7 [2]) | Compound | capability to degrade USP7 protein (USP7 [1]) | block of PU7-1-induced destabilization of FOXM1 (FOXM1) |
| --- | --- | --- | --- |
| – | CN1C(=O)CCC(N2Cc3c(CCCCCN4CCN(CCC(=O)Nc5ccc6c(=O)n(CC7(O)CCN(C(=O)C(CCCNC(=O)c8ccc9c(Cl)c%10c(nc9c8)CCCC%10)Cc8ccccc8)CC7)cnc6c5)CC4)cccc3C2=O)C1=O (stereo not drawn) [PU7-1N, N-(4-benzyl-5-(4-hydroxy-4-((7-(3-(4-(5-(2-(1-methyl-2,6-dioxopiperidin-3-yl)-1-oxoisoindolin-4-yl)pentyl)piperazin-1-yl)propanamido)-4-oxoquinazolin-3 (4H)-yl)methyl)piperidin-1-yl)-5-oxopentyl)-9-chloro-5,6,7,8-tetrahydroacridine-3-carboxamide] | defective capability to degrade USP7 protein | – |
| significantly rescued | NS(=O)(=O)OC[C@@H]1C[C@@H](n2ccc3c(N[C@H]4CCc5ccccc54)ncnc32)C[C@@H]1O [MLN4924] | – | readily blocked |
| no effect | CCN(CC)CCCC(C)Nc1ccnc2cc(Cl)ccc12 (stereo not drawn) [Chloroquine] | – | – |

| Compound | effect on USP7 degradation mediated by PU7-1 (USP7 [2]) | capability to degrade USP7 protein (USP7 [1]) | block of PU7-1-induced destabilization of FOXM1 (FOXM1) |
| --- | --- | --- | --- |
| CC(C)C[C@@H](C=O)NC(=O)[C@H](CC(C)C)NC(=O)[C@H](CC(C)C)NC(=O)OCc1ccccc1 [MG132] (Cbz-Leu-Leu-Leu-aldehyde) | significantly rescued | – | readily blocked |
